Test results as given in PubChem BioAssay (NCI).
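Following 48 hours of exposure in 96-well plates, responses at five concentrations were used to interpolate endpoints linearly. TGI: concentration producing complete growth inhibition.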

How the values were obtained:
Experiment in all cases: inhibition of tumour cell growth, NCI panel, 48 h
786-0 renal = tested on: 786-0 renal
DU-145 prostate = tested on: DU-145 prostate
EKVX NSCLC = tested on: EKVX NSCLC
HCT-116 colon = tested on: HCT-116 colon
HCT-15 colon = tested on: HCT-15 colon
HOP-62 NSCLC = tested on: HOP-62 NSCLC
K-562 leukemia = tested on: K-562 leukemia
LOX IMVI melanoma = tested on: LOX IMVI melanoma
M14 melanoma = tested on: M14 melanoma
OVCAR-3 ovarian = tested on: OVCAR-3 ovarian
OVCAR-4 ovarian = tested on: OVCAR-4 ovarian
SK-MEL-28 melanoma = tested on: SK-MEL-28 melanoma
SR leukemia = tested on: SR leukemia
UACC-257 melanoma = tested on: UACC-257 melanoma
UO-31 renal = tested on: UO-31 renal
A498 renal = tested on: A498 renal
IGROV1 ovarian = tested on: IGROV1 ovarian
NCI-H226 lung = tested on: NCI-H226 lung
SK-OV-3 ovarian = tested on: SK-OV-3 ovarian

Compound	TGI (786-0 renal) [µM]	TGI (DU-145 prostate) [µM]	TGI (EKVX NSCLC) [µM]	TGI (HCT-116 colon) [µM]	TGI (HCT-15 colon) [µM]	TGI (HOP-62 NSCLC) [µM]	TGI (K-562 leukemia) [µM]	TGI (LOX IMVI melanoma) [µM]	TGI (M14 melanoma) [µM]	TGI (OVCAR-3 ovarian) [µM]	TGI (OVCAR-4 ovarian) [µM]	TGI (SK-MEL-28 melanoma) [µM]	TGI (SR leukemia) [µM]	TGI (UACC-257 melanoma) [µM]	TGI (UO-31 renal) [µM]	TGI (A498 renal) [µM]	TGI (IGROV1 ovarian) [µM]	TGI (NCI-H226 lung) [µM]	TGI (SK-OV-3 ovarian) [µM]
O=C1OC[C@@H]2Cc3cc4c(cc3[C@H](c3ccc5c(c3)OCO5)[C@@H]12)OCO4	> 25	> 25	> 25	> 25	> 25	> 25	> 25	> 25	> 25	> 25	> 25	> 25	> 25	> 25	> 25				
N#C/C(C(=O)Nc1ccccc1)=C(/N)N1CCOCC1	> 100	> 100	> 100	> 100	> 100	> 100	> 100	> 100	> 100	> 100		> 100	> 100	> 100	> 100	> 100	> 100	> 100	> 100
S=C(c1c[nH]c2ccccc12)N1CCOCC1	> 100	> 100	> 100	> 100	> 100	> 100	> 100	> 100	> 100	> 100		> 100	> 100	> 100	> 100	> 100	> 100	> 100	> 100
CCn1c(-c2cc(OC)cc(OC)c2)nc2c1C(=O)c1ccccc1C2=O	> 100	> 100	> 100	> 100	> 100	> 100	> 100		> 100	> 100	> 100	> 100	> 100	> 100			> 100	> 100	> 100
CCc1nc(N)nc(N)c1-c1ccc(Cl)c(Cl)c1	> 100	> 100	> 100	> 100	> 100	> 100		> 100	> 100	> 100	> 100	> 100	> 100	> 100	> 100	> 100	> 100		> 100
CS(=O)(=O)Nc1ccc(N2Cc3cnc4ccc5[nH]ccc2c5c34)cc1	40.3	40.9	> 100	27.8	> 100	59.2	38.7	28.2	32.2	32.2	46.6	41.6		31.8	> 100	49.4	79.9	42.2	
O=C(O)c1nc(-c2ccccc2)ncc1-c1nnnn1-c1ccccc1	> 100	> 100	> 100	> 100	> 100	> 100	> 100	> 100	> 100	> 100		> 100	> 100	> 100	> 100	> 100	> 100	> 100	> 100
CCCCCN=Cc1c(O)c(O)c(C(C)C)c2cc(C)c(-c3c(C)cc4c(C(C)C)c(O)c(O)c(C=NCCCCC)c4c3O)c(O)c12	> 100	> 100	> 100	> 100	78	> 100	70	16.7	> 100	65		26.5	> 100	46.2	41.1	> 100	87.4	88.4	39.7
Cc1ccc(/C=N/n2c(=O)[nH]c3ccccc3c2=O)cc1	> 100	> 100	> 100	> 100	> 100	> 100	> 100	> 100	> 100	> 100		> 100	> 100	> 100	> 100	> 100	> 100	> 100	> 100
COc1cc(-c2cc(=O)c3c(OC)c(OC)c(OC)c(OC)c3o2)c(OC)c(OC)c1OC	> 100	> 100	> 100	> 100	> 100	> 100	> 100	> 100	> 100		> 100	> 100	> 100	> 100	88.6		> 100	> 100	> 100
CC[N+](CC)(CCNCC(N)=O)CC(N)=O	> 10	> 10	> 10	> 10	> 10	> 10	> 10	> 10	> 10	> 10	> 10	> 10		> 10	> 10	> 10	> 10	> 10	> 10
Clc1c(Cl)c(Cl)c2nn(C3CCCO3)nc2c1Cl (centres undefined)	> 100	> 100	> 100	> 100		> 100	98.3		> 100	> 100			> 100	> 100		> 100	> 100	> 100	> 100
CN(c1ccc(Cl)cc1)S(=O)(=O)c1cccc([N+](=O)[O-])c1	> 100	> 100	> 100	> 100	> 100	> 100	> 100	> 100	> 100	> 100	> 100	> 100	> 100	> 100	> 100		> 100	> 100	> 100
CC1=C(C#N)C(C#N)(C#N)C(NN(C)C)C1 (centres undefined)	25.6	33.8	86.3	29.2	21.3	30.4	60.8	29.7	> 100		> 100	> 100	> 100	26.4	29.3	43	40.9		> 100
COc1ccc(N=C2SC(=N/N=c3\sc4ccccc4n3C)SC2=Nc2ccc(OC)cc2)cc1	> 100	> 100	> 100	> 100	> 100	> 100	> 100		> 100	> 100		> 100	> 100	> 100	> 100		> 100	> 100	> 100
O=[N+]([O-])c1ccc(/C=N/n2c(CO)nc3ccccc32)o1	17.9	13.9	23.6	7.86	15.7	28.7	62.7	15.9	16.7	6.91	21.8	12.6		6.25	22.9	32.4	6.09	39.5	71.9
C=C1CC(c2ccc(OCCCN3C(=O)c4ccccc4C3=O)c(OC)c2)OC1=O (centres undefined)	14.6	24.5	30.6	6.6	18.6	30.6	2.68	4.53	17.3	8.96		9.34	2.72	12.8	7.8	6.83	8.41	23.4	29.4
Cc1cc(C)c(S(=O)(=O)N2CCCN(S(=O)(=O)c3c(C)cc(C)cc3C)OCCCON(S(=O)(=O)c3c(C)cc(C)cc3C)CCCN(S(=O)(=O)c3c(C)cc(C)cc3C)OCCCO2)c(C)c1	> 100	> 100	> 100	> 100	> 100	> 100	> 100	> 100	> 100	> 100	> 100	> 100	> 100	> 100	> 100		> 100	> 100	> 100
C=CCNC1=C2C[C@@H](C)C[C@@H](OC)[C@H](OC(=O)CCCCN)[C@H](C)/C=C(\C)[C@@H](OC(N)=O)[C@H](OC)/C=C\C=C(/C)C(=O)NC(=CC1=O)C2=O	26.5	18.5	26.9	28	34.1	18.5	> 100	27.5	27	7.66	30.8	36.9	> 100	18.9	34.2	25.9	28.6		19.9
COc1ccc(C2CC(=O)CC(c3ccc(OC)cc3)C23C(=O)NC(=O)NC3=O)cc1 (centres undefined)	> 100	> 100	> 100	> 100	> 100	82.2	> 100	> 100	> 100	44.4	> 100	43.7	> 100	> 100	> 100		80	> 100	
Cc1cccc(-c2nc3ccc([N+](=O)[O-])cc3c(=O)o2)c1	> 100	> 100		> 100	> 100	> 100	> 100	> 100		> 100	> 100	> 100	> 100	> 100	> 100	> 100	> 100	> 100	> 100
CN1C(=O)N/C(=C\c2ccc(S(=O)(=O)NN)cc2)C1=O	> 100	> 100	> 100	> 100	> 100	> 100	> 100	> 100	> 100	> 100	> 100	> 100		> 100	> 100	> 100	> 100	> 100	> 100
CCC1(CC)SCc2nc3ccccc3n21	> 100	> 100	73.7	73.4	> 100	> 100	74.5	> 100	70.5	> 100	> 100	> 100		71.9	> 100	> 100	> 100	88.8	> 100
CN(C)Cc1cc(C(=O)/C=C/c2ccc(Cl)cc2)cc(CN(C)C)c1O	20.2	24.4	38.8	26.5	54.4	15.8	21.4	15.3		10.8		26.4	45.7	29.2	19.9	27.7	29	49.8	
O=C(CC(=O)Nc1cccc(C(=O)O)c1)Nc1cccc(C(=O)O)c1	> 100	> 100	> 100	> 100	> 100	> 100	> 100	> 100	> 100	> 100	> 100	> 100		> 100	> 100	> 100	> 100	> 100	
O=C(O)c1n[nH]nc1Cl	> 100	> 100	> 100	> 100	> 100	> 100	> 100	> 100	> 100	> 100	> 100	> 100		> 100	> 100	> 100	> 100	> 100	> 100
COC(C)(C)C1=CCC(C)CC1 (centres undefined)	> 100	> 100	> 100	> 100	> 100	> 100			> 100	> 100	> 100	> 100	78	> 100	> 100	> 100	> 100		> 100
